# Test results published in US11596716B2, “Compounds and matrices for use in bone growth and repair” (Human BioMolecular Research Institute, priority 2013, dated 2023).
# Where “and” joins values, the source holds several entries; their conditions need not be identical. Equal entries are not always repeated.
# Columns and labels:
# [1] = tested on: hMSCs; test: TLR4/TLR3 mRNA expression ratio by qPCR in hMSCs; assay type: cell-based, human; settings: 500 nM, 8 days
# Text: TLRs are modulators of hMSC differentiation. TLRs (TLR1-10) mRNA could be detected by qPCR in hMSCs. TLR4 is a biomarker for osteogenesis and TLR3 is a biomarker for adipogenesis. […]
# [2] = tested on: hMSCs; test: Oil Red O staining (adipogenesis) in hMSCs; assay type: cell-based, human; settings: for effect on adipogenesis, densitometry of cell culture images: 500 nM every 48 hr for 25 days, TCP 5 mg/mL; for adipogenesis (Oil Red O staining) compared to vehicle-treated hMSCs: presence or absence of matrix, 25 days
# Description: Oil Red O Staining: Oil Red O (ORO, 1-(2,5-dimethyl-4-(2-5-dimethylphenyl) phenyldiazenyl) azonapthalen-2-ol) was used to stain for the presence of adipocytes. An ORO solution was prepared to afford a 0.03% final concentration in dH2O. hMSCs were cultured as described above for Alizarin Red Staining (Example 7) in 48-well plates. On day 25 of cell incubation, cells were fixed with 4% formaldehyde for 40 mins at room temperature. Cells were stained for 1 hr followed by washes with dH2O (1 mL) until the wash water was clear (without red elutes). Cell culture images were taken under a microscope and quantified by densitometry.
# [3] = tested on: hMSCs; test: qPCR of target gene mRNA expression in hMSCs; assay type: cell-based, human
# Description: qPCR detection of osteogenic markers: Cells were cultured with compound in the presence or absence of matrix as described above, but using 96-well plate format. Total RNA was extracted from cells (as above) using Trizol. cDNA was made using 750 ng of total RNA with Bio-Rad iscript kit and was diluted 20-fold before being used for qPCR. qPCR was conducted under the following conditions: 95° C., 2 min; 95° C., 10 s and 60° C., 45 s for 40 cycles; 60° C. for 71 cycles for melt curve. qPCR results were analyzed by the ΔΔCt method. 18s rRNA was used as an internal standard. This protocol was applied to hMSC and E15 cells.
# Runx2 and BMP-2 are osteogenic markers; Axin2, Wnt3a, and Sox 9 are Wnt-inducible gene markers.
# The assay for mRNA expression followed the same procedure with hMSCs as described for C2C12 cells (Example 7).
# [4] = Prodrug hydrolysis in phosphate buffer determined by HPLC; assay type: physicochemical
# Description: 3 provided 54 (described in Example 3) through prodrug hydrolysis as determined by HPLC.
# Within 5 minutes, the hydrolysis of 3 produced compound 84 (described in Example 3) that is the mono hydrolysis product of the bis(amino acid) pro-drug 3. Within 15 minutes, compound 54 that is the fully hydrolyzed product from 3 (and 84) was prominent in solution. By 77 minutes, most of 3 was hydrolyzed while compound 84 and compound 54 persisted.
# [5] = tested on: hMSCs; test: Transwell migration of hMSCs to calcium phosphate matrix; assay type: cell-based, human
# Description: Human MSC migration to the site of bone injury is an important part of the repair process. […] After 8 hrs, compounds were washed off the cells and cells placed in a traditional transwell migration system. The top reservoir contained serum-free DMEM and the bottom reservoir contained DMEM plus 2% FBS. After incubation overnight, non-migrated cells were removed, migrated cells (stuck in the bottom chamber) were then fixed with 70% EtOH (40 mins) and total migrated cells were counted under a microscope after staining with 1 mg/mL of crystal violet (1 hr). hMSCs treated with compound 2 (500 nM, 8 hr) induced a 10-fold greater cell migration to the matrix than DMSO-pre-treated cells under the conditions described above. In a separate experiment, matrix that was pre-coated with compound 4 (as prepared in Example 5) was placed in the bottom chamber and migration of hMSCs from the top chamber was evaluated. Compound 4-coated matrix induced a 2-fold increase in cell migration to the matrix compared to DMSO-treated cells.
# hMSC migration was analyzed by using calcium phosphate matrix that had been pre-adsorbed with compounds 1 or 2 (500 nM, as described in Example 5) and studied in the transwell system (2% serum, described above). Compound 1 and 2 induced 3.5-fold and 1.9-fold more cell migration than non-coated ceramic. While non-limiting, these examples show the utility of the approach for increased cell migration and localization to the calcium phosphate ceramic matrix when compounds of the disclosure are present. Use of compounds of Formula II, IV, and VI to pre-coat the ceramic and also pretreat the cells is also of utility.
# [6] = tested on: cells released from demineralized allogeneic bone chips; test: Allograft-derived cells cultured with compound and TCP matrix; assay type: cell-based; settings: 500 nM, TCP matrix 5 mg/mL, 8 days
# Description: Demineralized allogeneic bone chips were thawed at 37° C. quickly with gentle agitation, washed with Dulbecco's PBS (DPBS) and centrifuged at 600×g for 5 min at room temperature. The material was digested with a collagenase and the mixture was filtered through a 100 µm cell strainer and the remaining bone fragments were rinsed with DPBS. The released cells were centrifuged at 1,200× rpm for 5 min at room temperature, resuspended and plated in 10 mL α-MEM media plus 20% FBS plus 1×Glutmax. After three days at 37° C. and 5% CO2, the TCP matrix (5 mg/mL) was added followed by compound 1 (500 nM) (or other compounds of Formula II, IV or VI) and the cell culture media was replaced every two days with fresh media-containing compound for 8 days. Cells were harvested after 8 days for determination of ALP activity, osteogenic mRNA biomarkers (i.e., VDR and collagen I, and cell proliferation. Cell proliferation increased 2.5-fold. VDR and collagen/mRNA expression increased 4.5-fold and 2.2-fold, respectively. Similar to isolated hMSCs in the presence of matrix, allograft-derived cells also respond to the presence of compounds and matrix to afford osteogenesis. The cells can be used in implantation as described in Examples 19 and 20.
# [7] = compound 500 nM, matrix 5 mg/mL, 3 days
compound,measurement,setting,value
"CC(C)[C@H](N)C(=O)Oc1ccc(C=CC(=O)C=C(O)C=Cc2ccc(OC(=O)[C@@H](N)C(C)C)cc2)cc1 [Compound 3, (2S,2′S)—O,O′-(3-hydroxy-5-oxohepta-1,3,6-triene-1,7-diyl)bis(4,1-phenylene) bis(2-amino-3-methylbutanoate)]","TLR4/TLR3 ratio, compound alone",[1],modest increase
same,"effect on adipogenesis, densitometry of cell culture images",[2],modestly inhibitory to adipogenesis
same,adipogenesis (Oil Red O staining) compared to vehicle-treated hMSCs,[2],no increase in adipogenesis
same,"Collagen 1 mRNA Fold-Change +/− SD, −matrix","[3]; 500 nM, 8 days",1.5 fold and 1.5 ± 0.2 fold
same,"Osteocalcin mRNA Fold-Change +/− SD, −matrix","[3]; 500 nM, 8 days",0.5 ± 0.1 fold
same,"VDR mRNA Fold-Change +/− SD, −matrix","[3]; 500 nM, 8 days",5.0 ± 0.5 fold
same,decrease of Sox9 expression,"[3]; 500 nM, matrix 5 mg/mL, 3 days",40%
same,decrease of Wnt repressor gene Axin2 expression,"[3]; 500 nM, matrix 5 mg/mL, 3 days",80%
same,"ALP mRNA Fold-Change +/− SD, +matrix","[3]; 500 nM, matrix 5 mg/mL, 8 days",55 fold and 55.0 ± 5.0 fold
same,"Collagen 1 mRNA Fold-Change +/− SD, +matrix","[3]; 500 nM, matrix 5 mg/mL, 8 days",1.8 ± 0.2 fold
same,"Osteocalcin mRNA Fold-Change +/− SD, +matrix","[3]; 500 nM, matrix 5 mg/mL, 8 days",5.2 ± 0.5 fold
same,"VDR mRNA Fold-Change +/− SD, +matrix","[3]; 500 nM, matrix 5 mg/mL, 8 days",45 fold and 45.0 ± 5.0 fold
same,"BMP-2 mRNA fold-changes +/− SD, −matrix","[3]; compound 500 nM, 3 days",2.6 ± 0.2 fold
same,"Runx2 mRNA fold-changes +/− SD, −matrix","[3]; compound 500 nM, 3 days",101.3 ± 10.0 fold
same,"Sox9 mRNA fold-changes +/− SD, −matrix","[3]; compound 500 nM, 3 days",0.1 ± 0.01 fold
same,"Wnt3a mRNA fold-changes +/− SD, −matrix","[3]; compound 500 nM, 3 days",1 ± 0.1 fold
same,"Wnt5a mRNA fold-changes +/− SD, −matrix","[3]; compound 500 nM, 3 days",1 ± 0.1 fold
same,"Axin2 mRNA fold-changes +/− SD, +matrix",[3]; [7],0.2 ± 0.02 fold
same,"BMP-2 mRNA fold-changes +/− SD, +matrix",[3]; [7],7.5 fold and 7.5 ± 0.7 fold
same,"Runx2 mRNA fold-changes +/− SD, +matrix",[3]; [7],8.2 fold and 8.2 ± 0.8 fold
same,"Sox9 mRNA fold-changes +/− SD, +matrix",[3]; [7],0.6 ± 0.1 fold
same,"Wnt3a mRNA fold-changes +/− SD, +matrix",[3]; [7],82.4 fold and 82.4 ± 8.0 fold
same,"Wnt5a mRNA fold-changes +/− SD, +matrix",[3]; [7],6.3 fold and 6.3 ± 0.6 fold
same,persistence of compound,[4]; pH 6.5 PBS,≥ 77 min
same,time until compound 54 (fully hydrolyzed product) was prominent in solution,[4]; pH 6.5 PBS,≤ 15 min
same,time until hydrolysis produced compound 84 (mono hydrolysis product),[4]; pH 6.5 PBS,≤ 5 min
same,persistence for over an hour in pH 7.5 buffer,"[4]; pH 7.5 buffer, versus pH 6.5 phosphate buffer (10 mM)",not in pH 7.5 buffer
"CC(=O)N1c2ccc(C)cc2[C@H](Nc2ccc(C)cc2)C[C@@H]1C (relative stereo) [Compound 1, cis-1-acetyl-2,6-dimethyl-N-(p-methylphenyl)-1,2,3,4-tetrahydroquinolin-4-amine]",cell migration to matrix pre-adsorbed with compound versus non-coated ceramic,"[5]; 500 nM, transwell, 2% serum",3.5 fold
same,Cell proliferation increase,[6],2.5 fold
same,VDR mRNA expression increase,[6],4.5 fold
same,collagen/mRNA expression increase,[6],2.2 fold
same,"TLR4/TLR3 ratio, compound alone",[1],modest increase
"CC(C)[C@H](N)C(=O)Oc1ccc(/C=C/C(O)=C2\CCC/C(=C\c3ccc(OC(=O)[C@@H](N)C(C)C)cc3)C2=O)cc1 [Compound 4, 4-((1E,3Z)-3-(3-((E)-4-((L-valyl)oxy)benzylidene)-2-oxocyclohexylidene)-3-hydroxyprop-1-en-1-yl)phenyl L-valinate]",cell migration to compound-coated matrix compared to DMSO-treated cells,[5]; matrix pre-coated with compound in bottom chamber,2 fold
same,"effect on adipogenesis, densitometry of cell culture images",[2],modestly inhibitory to adipogenesis
same,adipogenesis (Oil Red O staining) compared to vehicle-treated hMSCs,[2],no increase in adipogenesis
